Laboratory results published in patent US10456359B2, “Synergistic beverage composition” (Harsha Chigurupati, priority 2015, dated 2019).
Where a SMILES comes first, the peptide text is derived from it.

How the values were obtained:
[1] = tested on: serum alanine aminotransferase (ALT); experiment: Hepatoprotection study, serum ALT, alcohol 5 days; format: in vivo, Wistar albino rats; conditions: Pro: Protection (%), rats, alcohol 4 gm/kg/day p.o.
[2] = tested on: aspartate aminotransferase (AST); experiment: Hepatoprotection study, serum AST, alcohol 5 days; format: in vivo, Wistar albino rats; conditions: Pro: Protection (%), rats, alcohol 4 gm/kg/day p.o.
[3] = tested on: serum C-reactive protein (CRP); experiment: CNS/immunology study, serum CRP, alcohol 5 days; format: in vivo, Wistar albino rats; conditions: Pro: Protection (%), rats, alcohol 5 Day
Text: (§1) For hangover, 1 day immunology parameter were considered and for CNS, 5 days immunology parameter were considered.

interleukin-12 (IL-12) [4] = experiment: CNS/immunology study, serum IL-12, alcohol 5 days; format: in vivo, Wistar albino rats; conditions: Pro: Protection (%), rats, alcohol 5 Day
Text: as §1

[5] = tested on: Monocyte chemoattractant protein-1 (MCP-1); experiment: CNS/immunology study, serum MCP-1, alcohol 5 days; format: in vivo, Wistar albino rats; conditions: Pro: Protection (%), rats, alcohol 5 Day
Procedure: (§2) The lowest detectable limit of the kit is 0.1 ng/ml (Wang L, Li Y, Chen J, et al. “Ischemic Cerebral Tissue and MCP-1 Enhance Rat Bone Marrow Stromal Cell Migration in Interface Culture.” Experimental Hematology, 30, 7, 2002, 831-836).
as §1

Interferon gamma (IFN-γ) [6] = experiment: CNS/immunology study, serum IFN-gamma, alcohol 5 days; format: in vivo, Wistar albino rats; conditions: Pro: Protection (%), rats, alcohol 5 Day
Text: (§3) Distilled ethanol was obtained from Bengal Chemicals, West Bengal, India. Biochemical kits like AST, ALT, ALP and total protein were obtained from Span Diagnostics Ltd. Surat, India. Rat IL-12 ELISA kit (Elabscience Biotechnology Co. Ltd, WuHan, P.R.C.), Rat CRP ELISA kit (BD Biosciences, USA), Rat IFN-gamma ELISA kit (Biolegend, San Diego, Calif.) Rat MCP-1 ELISA kit (Elabscience Biotechnology Co. Ltd, WuHan, P.R.C.). All the chemicals used in the present study were of analytical grade and obtained from the following companies: Sigma (St. Louis, Mo., USA), Merck (Mumbai, India), S D fine chemicals (Mumbai, India) and Qualigen (Mumbai, India).
as §1

[7] = tested on: Monocyte chemoattractant protein-1 (MCP-1) from brain homogenate; experiment: CNS study, MCP-1 from brain homogenate, alcohol 5 days; format: in vivo, Wistar albino rats; conditions: Pro: Protection (%), rats, alcohol 5 Day
[8] = tested on: spatial learning and memory; experiment: Morris water maze task (escape latency), alcohol 5 days; format: in vivo, Wistar albino rats; conditions: Pro: Protection (%), rats, alcohol 5 day
[9] = tested on: serum C-reactive protein (CRP); experiment: Hangover study, serum CRP, alcohol 1 day; format: in vivo, Wistar albino rats; conditions: 1 Day alcohol
Text: as §1

interleukin-12 (IL-12) [10] = experiment: Hangover study, serum IL-12, alcohol 1 day; format: in vivo, Wistar albino rats; design: concentration or dose not given beside the values; conditions: 1 Day alcohol
Text: as §1

[11] = tested on: Monocyte chemoattractant protein-1 (MCP-1); experiment: Hangover study, serum MCP-1, alcohol 1 day; format: in vivo, Wistar albino rats; design: concentration or dose not given beside the values; conditions: 1 Day alcohol
Procedure: as §2, §1

Interferon gamma (IFN-γ) [12] = experiment: Hangover study, serum IFN-gamma, alcohol 1 day; format: in vivo, Wistar albino rats; design: concentration or dose not given beside the values; conditions: 1 Day alcohol
Text: as §3, §1

[13] = tested on: interleukin-12 (IL-12) from brain homogenate; experiment: Hangover study, IL-12 from brain homogenate, alcohol 1 day; format: in vivo, Wistar albino rats; design: concentration or dose not given beside the values; conditions: 1 Day alcohol
[14] = tested on: Monocyte chemoattractant protein-1 (MCP-1) from brain homogenate; experiment: Hangover study, MCP-1 from brain homogenate, alcohol 1 day; format: in vivo, Wistar albino rats; conditions: 1 Day alcohol
[15] = tested on: alkaline phosphatase (ALP); conditions: Pro: Protection (%); rats, alcohol 4 gm/kg/day p.o., 5 days, serum
Procedure: The levels of alanine aminotransferase (ALT), aspartate aminotransferase (AST) and alkaline phosphatise (ALP) in serum were measured using commercial spectrophotometric kit bought from Span Diagnostic Ltd. (www.span.in) according to the manufacturer's protocols.
12-16 hours after the last dose, the animals were sacrificed and blood samples were collected for estimation of biochemical parameters.
Male Wistar albino rats weighing 150-200 g were procured and randomly divided into groups consisting of twelve (12) animals in each group. Hepatoprotection was induced by alcohol in rats by oral administration of 30% alcohol (4 gm/kg/day, p.o.) for 5 days and this group served as the negative control and treated groups received different formulation.
All drug solutions were prepared in 40% aqueous alcohol, adjusting the pH in the range of 5.0-10.0 for evaluation of alcohol induced Hepatoprotection. This solution was further diluted with distilled water to obtain 30% aqueous alcoholic solution and administered orally by gavage to different rats group of step (a).

[16] = tested on: acetylcholinesterase activity of brain homogenate; conditions: Pro: Protection (%), rats, alcohol 5 Day
Procedure: (§4) We have included this parameter to evaluate cognition and memory deficit in experimental animals.
(§5) Experimental Design • (b) Animal study model 1: Saline/Alcohol (4.0 gm/kg/day, p.o.)/Formulation with alcohol (4.0 gm/kg/day, p.o.) were administered (fed orally by orogastric cannula) for one day. 12-16 hours after the dose the animals were sacrificed and blood samples will be collected for estimation of biochemical parameters. Whole brain without cerebellum were dissected out, 10% homogenate was prepared with 0.1 M PB (pH 7.4). The homogenate solution was centrifuged at 10000 rpm for 20 minutes at 4° C. and the supernatant was used for estimation of acetylcholinesterase activity, which was estimated by Ellman's method (Ellman G L et al. A new and rapid colorimetric determination of acetylcholinesterase activity. Biochem Pharmacol, 1961, 7:88.) • (c) Animal study model 2: Saline/Alcohol (4.0 gm/kg/day, p.o.)/Formulation with alcohol (4.0 gm/kg/day, p.o.) were administered (fed orally by orogastric cannula) for 5 consecutive days. 12-16 hours after the last dose, the animals were sacrificed and blood samples were collected for estimation of biochemical parameters. Whole brain without cerebellum were dissected out, 10% homogenate was prepared with 0.1 M PB (pH 7.4). The homogenate solution was centrifuged at 10000 rpm for 20 minutes at 4° C. and the supernatant was used for estimation of acetylcholinesterase activity. […] The latency period of day 5 (before alcohol) was compared with post alcohol latency period (Vorhees C V and Williams M T. Morris water maze: procedures for assessing spatial and related forms of learning and memory, Nat Protoc, 2006, 1(2): 848-58.). % Protection Calculated in Above Experiments: % Protection=1−[(T−NS)/(AL−NS)]×100 T=Mean value of drug treated, NS=Mean value of normal control, AL=Mean value of alcohol alone.
(§6) Male Wistar albino rats weighing 150-200 g were procured and randomly divided into groups consisting of twelve (12) animals in each group. Alcohol induced hangover and CNS related biochemical changes and memory function in rats by oral administration of 30% alcohol (4 gm/kg/day, p.o.) for 1 and 5 days and this group served as the negative control and treated groups received different formulation.
(§7) All drug solutions were prepared in 40% aqueous alcohol, adjusting the pH in the range of 5.0-10.0 for evaluation of alcohol induced hangover and CNS related biochemical parameters.

[17] = tested on: acetylcholinesterase activity of brain homogenate; conditions: Hangover study, 1 Day alcohol; ingredient amounts in mass concentration (%)
Procedure: as §4, §5, §6, §7

[18] = tested on: interleukin-12 (IL-12) from brain homogenate; experiment: CNS study, IL-12 from brain homogenate, alcohol 5 days; format: in vivo, Wistar albino rats; conditions: Pro: Protection (%), rats, alcohol 5 Day

| SMILES | ALT Pro [1] [%] | AST Pro [2] [%] | CRP Pro [3] [%] | IL12 Pro (interleukin-12 (IL-12) [4]) [%] | MCP-1 Pro [5] [%] | IFN-Gamma Pro (Interferon gamma (IFN-γ) [6]) [%] | Brain MCP-1 Pro [7] [%] | WATER MAZE Pro [8] [%] | CRP Pro (Protection) [9] [%] | IL12 Pro (Protection) (interleukin-12 (IL-12) [10]) [%] | MCP-1 Pro (Protection) [11] [%] | IFN-Gamma Pro (Protection) (Interferon gamma (IFN-γ) [12]) [%] | Brain IL12 Pro (Protection) [13] [%] | Brain MCP-1 Pro (Protection) [14] [%] | ALP Pro [15] [%] | ACHe Pro [16] [%] | ACHe Pro (Protection) [17] [%] | Brain IL12 Pro [18] [%] |
| --- | --- | --- | --- | --- | --- | --- | --- | --- | --- | --- | --- | --- | --- | --- | --- | --- | --- | --- |
| C[C@H](N)C(=O)N[C@@H](CCC(N)=O)C(=O)O [2.0 DP, L-Ala-L-Gln] (H-Ala-Gln-OH) | 38.83 | 30.72 | 27.24 | 29.54 | 19.16 | 22.91 | 24.36 | 50.36 | 33.14 | 31.9 | 21.43 | 25.96 | 26.34 | 23.54 | 28.68 | 36.85 | 31.79 | – |
| C[C@H](N)C(=O)N[C@@H](CCC(N)=O)C(=O)O [3 DP, L-Ala-L-Gln] (H-Ala-Gln-OH) | 29.7 | 32.95 | 27.59 | 32.6 | 13.51 | 30.24 | – | 59.17 | 41.82 | 30.98 | 29.69 | 31.08 | – | – | 29.08 | 59.25 | 59.25 | 27.57 |
| C[C@H](N)C(=O)N[C@@H](CCC(N)=O)C(=O)O [1.5 DP, L-Ala-L-Gln] (H-Ala-Gln-OH) | 14.68 | 20.25 | 11.97 | 22.53 | 11.01 | – | – | 24.53 | 26.13 | 20.11 | 11.04 | 20.58 | 18.26 | 14.96 | 22.35 | 15.29 | 21.14 | – |
| OC[C@@H](O)[C@@H](O)[C@H](O)[C@H](O)CO [0.5 Man, D-Mannitol] | 3.59 | 4.28 | – | – | – | – | 2.75 | 4.95 | – | 3.59 | 3.27 | 3.51 | 4.25 | – | 4.78 | 5.22 | 4.12 | – |
| OC[C@@H](O)[C@@H](O)[C@H](O)[C@H](O)CO [1.2 Man, D-Mannitol] | 23.19 | 22 | – | – | – | – | 14.28 | 12.84 | 8.68 | 13.45 | 11.85 | 7.79 | 12.28 | 21.28 | 24.48 | 17.58 | 21.54 | 13.92 |
| C[C@H](N)C(=O)N[C@@H](CCC(N)=O)C(=O)O [1.25 DP, L-Ala-L-Gln] (H-Ala-Gln-OH) | 17.59 | 22 | – | 22.71 | 8.14 | 13.09 | – | 10.36 | 10.61 | – | 14.22 | 10.44 | 7.02 | 17.02 | 22.73 | 9.7 | 20.33 | 15.82 |
| C[C@H](N)C(=O)N[C@@H](CCC(N)=O)C(=O)O [1 DP, L-Ala-L-Gln] (H-Ala-Gln-OH) | 13.4 | 15.68 | 6.33 | 16.44 | 7.14 | 8.89 | – | 22.38 | 31.3 | 6.13 | 20.74 | 12.25 | 10.53 | 3.58 | 18.96 | 3.91 | – | 10.30 |
| OC[C@@H](O)[C@@H](O)[C@H](O)[C@H](O)CO [2.5 Man, D-Mannitol] | 38.4 | 42.57 | – | – | – | – | 24.65 | 25.4 | 18.33 | 21.4 | – | 18.22 | 23.16 | 27.66 | 34.75 | 30.61 | 45.12 | 28.33 |
| CC1(C(=O)O)CCC2(C)CCC3(C)C(=CC(=O)C4C5(C)CCC(OC6OC(C(=O)O)C(O)C(O)C6OC6OC(C(=O)O)C(O)C(O)C6O)C(C)(C)C5CCC43C)C2C1 (stereo not drawn) [0.3 GA, 18β-GA] | 25.62 | 20.46 | 15.63 | 10.07 | 15.46 | 23.18 | 21.36 | 15.57 | 11.21 | – | 13.97 | 7.85 | – | 18.92 | 11.68 | 21.5 | – | 15.63 |
